The structures appear in SMILES notation.

The data set can be described thus: HILIC, Waters ACQUITY UPLC BEH HILIC, 150 × 2.1 mm, 1.7 µm, 40 °C, 0.6 mL/min, estimated dead time 0.55 min; A: water + 0.1% formic acid + 20 mM ammonium formate, pH 3.5; B: acetonitrile + 0.1% formic acid, pH 3; gradient (min/%B) 0/95 0.1/95 4.6/80 5.5/50 7.0/50 7.1/95 7.2/95 7.3/95 7.4/95 7.5/95 7.6/95 7.7/95 7.8/95 12.50/95 12.65/95. The note with it: stereoisomer not certain.
As to `CN1CCCCC1C(=O)O` (centres undefined), the LC retention time was 4.59 min.
As for `CN(C)C(=N)N=C(N)N` [1,1-Dimethylbiguanide (Metformin)], the figure is 3.42 min.
As for `Cn1cnc2c(ncn2C2OC(CO)C(O)C2O)c1=N` (centres undefined) [1-Methyladenosine], the figure is 4.1 min.
The figure for `Cn1c(N)nc2c(ncn2C2OC(CO)C(O)C2O)c1=O` (centres undefined) [1-Methylguanosine] is 1.73 min.
For `Cn1cnc(CC(N)C(=O)O)c1` (centres undefined) [1-Methylhistidine], the LC retention time was 6.35 min.
As for `C[n+]1cccc(C(N)=O)c1` [1-Methylnicotinamide], the figure is 4.08 min.
As for `CCCCCC=CC(=O)OC(CC(=O)[O-])C[N+](C)(C)C` (centres undefined) [2-Octenoylcarnitine CAR(8:1)], the figure is 4.2 min; as for `CCC(C)C(=O)OC(CC(=O)[O-])C[N+](C)(C)C` (centres undefined) [2-methylbutyrylcarnitine], 4.39 min; as for `Nc1c(O)cccc1C(=O)O` [3-Hydroxyanthranilic acid], 0.69 min.
As for `CC(O)CC(=O)OC(CC(=O)[O-])C[N+](C)(C)C` (centres undefined) [3-Hydroxybutyrylcarnitine CAR(4:0-OH)], the figure is 5.4 min; as for `Cn1cncc1CC(N)C(=O)O` (centres undefined) [3-Methylhistidine], 6.09 min; as for `NC(N)=NCCCC(=O)O` [4-Guanidinobutanoic acid], 3.84 min.
In the case of `C[N+](C)(C)CCCC(=O)[O-]` [4-Trimethylammoniobutanoic acid (deoxycarnitine)], the LC retention time is 4.91 min.
On to `CSCC1OC(n2cnc3c(N)ncnc32)C(O)C1O` (centres undefined) [5'-Methylthioadenosine], for which the LC retention time is 1.3 min.
The figure for `Cn1cnc2nc(N)[nH]c(=O)c21` [7-Methylguanine] is 2.19 min; for `Cn1c[n+](C2OC(CO)C(O)C2O)c2nc(N)[nH]c(=O)c21` (centres undefined) [7-Methylguanosine] it is 1.97 min; for `CC(=O)Nc1ccc(O)cc1` [Acetaminophen] it is 0.71 min.
In the case of `Nc1ncnc2c1ncn2C1OC(CO)C(O)C1O` (centres undefined) [Adenosine], the LC retention time is 1.75 min.
The figure for `CC(N)C(=O)O` (centres undefined) [Alanine] is 4.57 min; for `Cn1cncc1CC(NC(=O)CCN)C(=O)O` (centres undefined) [Anserine] it is 6.1 min.
Turning to `NC(N)=NCCCC(N)C(=O)O` (centres undefined) [Arginine], the LC retention time is 5.92 min.
As for `CN(C)C(N)=NCCC[C@H](N)C(=O)O` [Asymmetric Dimethylarginine], the figure is 5.91 min; as for `C[N+](C)(C)CC(CC(=O)[O-])OC(=O)c1ccccc1` (centres undefined) [Benzoylcarnitine], 4.45 min; as for `C[N+](C)(C)CC(=O)[O-]` [Betaine], 4.78 min.
The figure for `C=CC1=C(C)C(C=c2[nH]c(=Cc3[nH]c(C=C4NC(=O)C(C)=C4C=C)c(C)c3CCC(=O)O)c(CCC(=O)O)c2C)=NC1=O` [Biliverdin] is 0.732 min; for `CCCC(=O)OC(CC(=O)[O-])C[N+](C)(C)C` (centres undefined) [Butyrylcarnitine] it is 4.69 min; for `Cn1c(=O)c2c(ncn2C)n(C)c1=O` [Caffeine] it is 0.85 min.
On to `C[N+](C)(C)CC(O)CC(=O)[O-]` (centres undefined) [Carnitine], for which the LC retention time was 5.32 min.
The figure for `NCCC(=O)NC(Cc1cnc[nH]1)C(=O)O` (centres undefined) [Carnosine] is 6.01 min; for `C[N+](C)(C)CCO` [Choline] it is 3.97 min; for `NC(=O)NCCCC(N)C(=O)O` (centres undefined) [Citrulline] it is 5.74 min.
For the molecule `CC12CCC(=O)C=C1CCC1C2C(O)CC2(C)C1CCC2(O)C(=O)CO` (centres undefined) [Cortisol], the LC retention time was 0.71 min.
Turning to `CN1C(=O)CCC1c1ccc[n+]([O-])c1` (centres undefined) [Cotinine N-oxide], the LC retention time was 2.87 min.
As for `CN1C(=O)CCC1c1cccnc1` (centres undefined) [Cotinine], the figure is 1.4 min.
As for `CN(CC(=O)O)C(=N)N` [Creatine], the LC retention time was 5.06 min.
As for `CN1CC(=O)NC1=N` [Creatinine], the figure is 2.51 min; as for `Nc1ccnc(=O)[nH]1` [Cytosine], 2.39 min; as for `CCCCCCCCCC(=O)OC(CC(=O)[O-])C[N+](C)(C)C` (centres undefined) [Decanoylcarnitine CAR(10:0)], 3.92 min.
As for `NCCc1ccc(O)c(OS(=O)(=O)O)c1` [Dopamine-3-O-sulfate], the figure is 1.07 min; as for `NCCc1ccc(OS(=O)(=O)O)c(O)c1` [Dopamine-4-O-sulfate], 1.07 min.
The figure for `NC(=O)CCC(N)C(=O)O` (centres undefined) [Glutamine] is 5.06 min; for `C[N+](C)(C)CC(CC(=O)[O-])OC(=O)CCCC(=O)O` (centres undefined) [Glutarylcarnitine CAR(5:0-DC)] it is 5.1 min.
With `CC(CCC(=O)NCC(=O)O)C1CCC2C3C(O)CC4CC(O)CCC4(C)C3CC(O)C12C` (centres undefined) [Glycocholic Acid], the LC retention time is 2.87 min.
As for `CC(CCC(=O)NCC(=O)O)C1CCC2C3CCC4CC(O)CCC4(C)C3CC(O)C12C` (centres undefined) [Glycodeoxycholic acid], the figure is 1.96 min.
For `CC(CCC(=O)NCC(=O)O)C1CCC2C3CCC4CC(O)CCC4(C)C3CCC12C` (centres undefined) [Glycolithocholic acid], the LC retention time is 1.22 min.
With `CC(CCC(=O)NCC(=O)O)C1CCC2C3C(O)CC4CC(O)CCC4(C)C3CCC12C` (centres undefined) [Glycoursodeoxycholic acid], the LC retention time was 1.85 min.
As for `Nc1nc2nc[nH]c2c(=O)[nH]1` [Guanine], the figure is 2.17 min; as for `CCCCCC(=O)OC(CC(=O)[O-])C[N+](C)(C)C` (centres undefined) [Hexanoylcarnitine CAR(6:0)], 4.34 min; as for `O=C(O)CNC(=O)c1ccccc1` [Hippuric acid], 1.16 min.
`NC(Cc1cnc[nH]1)C(=O)O` (centres undefined) [Histidine]: the LC retention time is 6.15 min.
As for `NC(N)=NCCCCC(N)C(=O)O` (centres undefined) [Homoarginine], the LC retention time was 5.92 min.
Regarding `O=c1[nH]cnc2nc[nH]c12` [Hypoxanthine], the LC retention time was 1.59 min.
As for `O=C(O)CCc1cnc[nH]1` [Imidazolepropionic acid], the figure is 3.76 min.
Turning to `O=c1[nH]cnc2c1ncn2C1OC(CO)C(O)C1O` (centres undefined) [Inosine], the LC retention time is 1.61 min.
The figure for `CC(C)C(=O)OC(CC(=O)[O-])C[N+](C)(C)C` (centres undefined) [Isobutyrylcarnitine] is 4.69 min.
The figure for `CC(C)CC(=O)OC(CC(=O)[O-])C[N+](C)(C)C` (centres undefined) [Isovalerylcarnitine] is 4.39 min; for `CC(=O)OC(CC(=O)[O-])C[N+](C)(C)C` [L-Acetylcarnitine CAR(2:0)] it is 5.03 min; for `O=C(O)[C@@H]1CCCN1C(=O)[C@@H]1CCCN1` [L-prolyl-L-proline] it is 5.4 min.
As for `CCCCCCCCCCCC(=O)OC(CC(=O)[O-])C[N+](C)(C)C` (centres undefined) [Lauroylcarnitine CAR(12:0)], the LC retention time is 3.97 min.
As for `NCCCCC(N)C(=O)O` (centres undefined) [Lysine], the figure is 5.98 min; as for `CSCCC(N)C(=O)O` (centres undefined) [Methionine], 4.11 min; as for `CC(=O)NCCCNCCCCNCCCNC(C)=O` [N1,N12-Diacetylspermine], 6.1 min.
Consider `CC(=O)NCCCNCCCCN` [N1-Acetylspermidine], for which the LC retention time is 5.99 min.
As for `Cn1cnc2c(ncn2C2OC(CO)C(O)C2O)c1=O` (centres undefined) [N1-Methylinosine], the figure is 1.44 min; as for `Cn1cc(C(N)=O)ccc1=O` [N1-methyl-2-pyridone-5-carboxamide], 1.24 min.
The figure for `Cn1ccc(=O)c(C(N)=O)c1` [N1-methyl-4-pyridone-3-carboxamide] is 1.5 min; for `CN(C)c1nc2c(ncn2C2OC(CO)C(O)C2O)c(=O)[nH]1` (centres undefined) [N2,N2-Dimethylguanosine] it is 1.9 min.
The figure for `CC(=O)Nc1ccn(C2OC(CO)C(O)C2O)c(=O)n1` (centres undefined) [N4-Acetylcytidine] is 1.27 min; for `C[N+](C)(C)CCCCC(N)C(=O)[O-]` [N6,N6,N6-Trimethyl-L-lysine] it is 6.16 min; for `CC(=O)NCCCC[C@H](N)C(=O)O` [N6-Acetyl-L-lysine] it is 5.44 min.
On to `CNc1ncnc2c1ncn2C1OC(CO)C(O)C1O` (centres undefined) [N6-Methyladenosine], for which the LC retention time is 1.43 min.
As for `CN(C)CC(=O)O` [N,N-Dimethylglycine], the figure is 4.64 min.
The figure for `CC(=O)N[C@@H]1C(O)O[C@H](CO)[C@@H](O)[C@@H]1O` (stereo partly drawn) [N-Acetyl-D-mannosamine] is 1.81 min; for `CC(=O)NCCCN1CCCC1=O` [N-Acetylisoputreanine-gamma-lactam] it is 1.83 min; for `CC(=O)NCCCNCCCC(=O)O` [N-Acetylisoputreanine] it is 4.93 min.
The figure for `CC(=O)NCCCCN` [N-Acetylputrescine] is 4.4 min; for `C[n+]1ccccc1` [N-Methylpyridinium] it is 3.82 min; for `CC(=O)NC(CCCCN)C(=O)O` [N-alpha-acetyl-L-lysine] it is 5.44 min.
For `CN1CCCC1C(=O)O` (centres undefined) [N-methylproline], the LC retention time was 4.48 min.
On to `Nc1nc2ncc(C(O)C(O)CO)nc2c(=O)[nH]1` (centres undefined) [Neopterin], for which the LC retention time is 2.32 min.
As for `NC(=O)c1cccnc1` [Niacinamide], the figure is 1.07 min.
As for `NC(=O)c1ccc[n+]([O-])c1` [Nicotinamide N-oxide], the figure is 2.02 min.
As for `CN1CCCC1c1cccnc1` (centres undefined) [Nicotine], the figure is 4.14 min; as for `O=C1CCC(c2cccnc2)N1` (centres undefined) [Norcotinine], 1.6 min.

The values are drawn from the RepoRT retention time repository.
